This experiment has as its target human PCSK9 (Homo sapiens, UniProt Q8NBP7). Briefly: PCSK9 ligand binding assay (TR-FRET): interference with binding of human PCSK9 to human LDLR. As to conditions: for IC50: Human PCSK9 Alexa Fluor 647 / Human LDLR extracellular domain-Europium Kryptate; for Max % inhibition: efficacy (Amax), 100% = 1 uM unlabeled human PCSK9, 0% = DMSO. The essentials:
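Read-out was TR-FRET ratio (665 nm over 615 nm, 330 nm excitation) between Alexa Fluor 647-human PCSK9 (16 nM added) and Europium Kryptate-human LDLR ectodomain (4 nM added). Compound and PCSK9 were mixed 30 min before LDLR, then incubated 2 h. Inhibition was normalised to DMSO and unlabelled-PCSK9 controls, giving IC50 and Amax.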

Molecules are shown by their SMILES.

human PCSK9, sequence (Q8NBP7 153-692): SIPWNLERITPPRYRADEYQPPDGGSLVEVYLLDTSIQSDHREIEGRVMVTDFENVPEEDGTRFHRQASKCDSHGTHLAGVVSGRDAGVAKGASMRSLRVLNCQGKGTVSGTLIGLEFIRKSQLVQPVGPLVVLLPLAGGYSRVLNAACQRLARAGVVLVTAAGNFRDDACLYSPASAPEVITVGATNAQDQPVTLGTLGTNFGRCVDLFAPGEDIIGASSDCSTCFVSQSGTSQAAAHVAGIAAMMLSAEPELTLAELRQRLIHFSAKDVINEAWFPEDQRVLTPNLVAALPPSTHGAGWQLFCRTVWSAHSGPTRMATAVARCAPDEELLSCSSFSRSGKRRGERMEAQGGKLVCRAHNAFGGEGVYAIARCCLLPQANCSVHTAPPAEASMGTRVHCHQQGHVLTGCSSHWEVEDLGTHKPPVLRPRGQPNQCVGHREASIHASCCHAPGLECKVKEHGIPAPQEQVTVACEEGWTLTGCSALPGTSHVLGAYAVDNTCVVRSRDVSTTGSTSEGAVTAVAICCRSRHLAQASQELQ
human PCSK9, sequence (Q8NBP7 31-152 partner limits assumed): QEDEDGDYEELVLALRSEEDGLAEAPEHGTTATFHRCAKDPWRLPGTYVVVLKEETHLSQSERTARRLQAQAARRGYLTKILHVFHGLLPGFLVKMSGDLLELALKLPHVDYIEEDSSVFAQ

Consider `COC[C@@H]1NC(=O)[C@H](C)N(Cc2c(F)cc(Cl)cc2Oc2ccc(-c3cnc(CN(C)C(C)(C)C)n3C)cc2)C(=O)C[C@@H](CC(F)(F)F)C(=O)N2CCC[C@@](Cc3ccc(Cl)cc3)(C2)NC1=O` [Compound 137, (3S,7S,10S,13R)-6-(2-(4-(2-((tert-Butyl(methyl)amino)methyl)-1-methyl-1H-imidazol-5-yl)phenoxy)-4-chloro-6-fluorobenzyl)-13-(4-chlorobenzyl)-10-(methoxymethyl)-7-methyl-3-(2,2,2-trifluoroethyl)-1,6,9,12-tetraazabicyclo[11.3.1]heptadecane-2,5,8,11-tetraone], for which the IC50 (usually the midpoint of a concentration-inhibition curve) turned out to be 300 pM and the Max % inhibition is 113.0%.
As to `COC[C@@H]1NC(=O)[C@H](C)N(Cc2c(F)cc(Cl)cc2Oc2ccc(-c3cnc(CNC(C)(C)C)n3C)cc2)C(=O)C[C@@H](CC(F)(F)F)C(=O)N2CCC[C@@](Cc3ccc(Cl)cc3)(C2)NC1=O` [Compound 138, (3S, 7S, 10S, 13R)-6-(2-(4-(2-((tert-butylamino)methyl)-1-methyl-1H-imidazol-5-yl)phenoxy)-4-chloro-6-fluorobenzyl)-13-(4-chlorobenzyl)-10-(methoxymethyl)-7-methyl-3-(2,2,2-trifluoroethyl)-1,6,9,12-tetraazabicyclo[11.3.1]heptadecane-2,5,8,11-tetraone], the IC50 is 180 pM and the Max % inhibition was 114.0%.
For `C[C@H]1C(=O)N[C@@H](CO)C(=O)N[C@@]2(Cc3ccc(Cl)cc3)CCCN(C2)C(=O)[C@H](CC(F)(F)F)CC(=O)N1Cc1c(F)cc(Cl)cc1Oc1ccc(-c2cnc(CN(C)C3CCC3)n2C)cc1` [Compound 139, (3S, 7S, 10S, 13R)-6-(4-chloro-2-(4-(2-((cyclobutyl(methyl)amino)methyl)-1-methyl-1H-imidazol-5-yl)phenoxy)-6-fluorobenzyl)-13-(4-chlorobenzyl)-10-(hydroxymethyl)-7-methyl-3-(2,2,2-trifluoroethyl)-1,6,9,12-tetraazabicyclo[11.3.1]heptadecane-2,5,8,11-tetraone] the same measures were 150 pM and 113.0%.
For `COC[C@@H]1NC(=O)[C@H](C)N(Cc2c(F)cc(Cl)cc2Oc2ccc(-c3cnc(CN(C)C)n3C)cc2)C(=O)C[C@@H](C2CCC2)C(=O)N2CCC[C@@](Cc3ccc(Cl)cc3)(C2)N(C)C1=O` [Compound 140, (3S, 7S, 10S, 13R)-6-(4-chloro-2-(4-(2-((dimethylamino)methyl)-1-methyl-1H-imidazol-5-yl)phenoxy)-6-fluorobenzyl)-13-(4-chlorobenzyl)-3-cyclobutyl-10-(methoxymethyl)-7,12-dimethyl-1,6,9,12-tetraazabicyclo[11.3.1]heptadecane-2,5,8,11-tetraone] the same measures were 1450 pM and 109.6%.
Taken in the same sequence, the figures for `COC[C@@H]1NC(=O)[C@H](C)N(Cc2c(F)cc(Cl)cc2Oc2ccc(-c3cnc(CN(C)C(C)(C)C)n3C)cc2)C(=O)C[C@@H](CC(F)(F)F)C(=O)N2CCC[C@@](Cc3ccc(Cl)cc3)(C2)N(C)C1=O` [Compound 141, (3S, 7S, 10S, 13R)-6-(2-(4-(2-((tert-butyl(methyl)amino)methyl)-1-methyl-1H-imidazol-5-yl)phenoxy)-4-chloro-6-fluorobenzyl)-13-(4-chlorobenzyl)-10-(methoxymethyl)-7,12-dimethyl-3-(2,2,2-trifluoroethyl)-1,6,9,12-tetraazabicyclo[11.3.1]heptadecane-2,5,8,11-tetraone] were 1780 pM and 112.3%.
`COC[C@@H]1NC(=O)[C@H](C)N(Cc2c(F)cc(Cl)cc2Oc2ccc(-c3cnc(CNC(C)(C)C)n3C)cc2)C(=O)C[C@@H](CC2CC2)C(=O)N2CCC[C@@](Cc3ccc(Cl)cc3)(C2)NC1=O` [Compound 142, (3R, 7S, 10S, 13R)-6-(2-(4-(2-((tert-butylamino)methyl)-1-methyl-1H-imidazol-5-yl)phenoxy)-4-chloro-6-fluorobenzyl)-13-(4-chlorobenzyl)-3-(cyclopropylmethyl)-10-(methoxymethyl)-7-methyl-1,6,9,12-tetraazabicyclo[11.3.1]heptadecane-2,5,8,11-tetraone]: the IC50 came to 910 pM and the Max % inhibition is reported as 111.1%.
As for `C[C@H]1C(=O)N[C@@H](CO)C(=O)N[C@@]2(Cc3ccc(Cl)cc3)CCCN(C2)C(=O)[C@H](CC(F)(F)F)CC(=O)N1Cc1ccc(Cl)cc1Oc1ccc(-c2cnc(CN(C)C(C)(C)C)n2C)cc1` [Compound 143, (3S, 7S, 10S, 13R)-6-(2-(4-(2-((tert-butyl(methyl)amino)methyl)-1-methyl-1H-imidazol-5-yl)phenoxy)-4-chlorobenzyl)-13-(4-chlorobenzyl)-10-(hydroxymethyl)-7-methyl-3-(2,2,2-trifluoroethyl)-1,6,9,12-tetraazabicyclo[11.3.1]heptadecane-2,5,8,11-tetraone], the IC50 was determined as 1280 pM and the Max % inhibition is given as 113.6%.
For `C[C@H]1C(=O)N[C@@H](CO)C(=O)N[C@@]2(Cc3ccc(Cl)cc3)CCCN(C2)C(=O)[C@H](CC2(C)CC2)CC(=O)N1Cc1c(F)cc(Cl)cc1Oc1ccc(-c2cnc(CN(C)C)n2C)cc1` [Compound 144, (3R, 7S, 10S, 13R)-6-(4-chloro-2-(4-(2-((dimethylamino)methyl)-1-methyl-1H-imidazol-5-yl)phenoxy)-6-fluorobenzyl)-13-(4-chlorobenzyl)-10-(hydroxymethyl)-7-methyl-3-((1-methylcyclopropyl)methyl)-1,6,9,12-tetraazabicyclo[11.3.1]heptadecane-2,5,8,11-tetraone] the same measures were 3960 pM and 113.1%.
Taken in the same sequence, the figures for `C[C@H]1C(=O)N[C@@H](CO)C(=O)N[C@@]2(Cc3ccc(Cl)cc3)CCCN(C2)C(=O)[C@H](CC2CC2)CC(=O)N1Cc1c(F)cc(Cl)cc1Oc1ccc(-c2cnc(CN(C)C)n2C)cc1` [Compound 145, (3R, 7S, 10S, 13R)-6-(4-chloro-2-(4-(2-((dimethylamino)methyl)-1-methyl-1H-imidazol-5-yl)phenoxy)-6-fluorobenzyl)-13-(4-chlorobenzyl)-3-(cyclopropylmethyl)-10-(hydroxymethyl)-7-methyl-1,6,9,12-tetraazabicyclo[11.3.1]heptadecane-2,5,8,11-tetraone] were 950 pM and 112.3%.
For `C[C@H]1C(=O)N[C@@H](CO)C(=O)N[C@@]2(Cc3ccc(Cl)cc3)CCCN(C2)C(=O)[C@H](CC(C)(F)F)CC(=O)N1Cc1c(F)cc(Cl)cc1Oc1ccc(-c2cnc(CN(C)C)n2C)cc1` [Compound 146, (3S, 7S, 10S, 13R)-6-(4-chloro-2-(4-(2-((dimethylamino)methyl)-1-methyl-1H-imidazol-5-yl)phenoxy)-6-fluorobenzyl)-13-(4-chlorobenzyl)-3-(2,2-difluoropropyl)-10-(hydroxymethyl)-7-methyl-1,6,9,12-tetraazabicyclo[11.3.1]heptadecane-2,5,8,11-tetraone] the same measures were 570 pM and 111.4%.
With `C[C@H]1C(=O)N[C@@H](CO)C(=O)N[C@@]2(Cc3ccc(Cl)cc3)CCCN(C2)C(=O)[C@H](CC(F)(F)F)CC(=O)N1Cc1ccc(Cl)cc1Oc1ccc(-c2cnc(CNC(C)(C)C)n2C)cc1` [Compound 147, (3S, 7S, 10S, 13R)-6-(2-(4-(2-((tert-butylamino)methyl)-1-methyl-1H-imidazol-5-yl)phenoxy)-4-chlorobenzyl)-13-(4-chlorobenzyl)-10-(hydroxymethyl)-7-methyl-3-(2,2,2-trifluoroethyl)-1,6,9,12-tetraazabicyclo[11.3.1]heptadecane-2,5,8,11-tetraone], the IC50 worked out at 720 pM and the Max % inhibition is on record as 110.6%.
Consider `C[C@H]1C(=O)N[C@@H](CO)C(=O)N[C@@]2(Cc3ccc(Cl)cc3)CCCN(C2)C(=O)[C@H](CC2CC2)CC(=O)N1Cc1ccc(Cl)cc1Oc1ccc(-c2cnc(CNC(C)(C)C)n2C)cc1` [Compound 148, (3R, 7S, 10S, 13R)-6-(2-(4-(2-((tert-butylamino)methyl)-1-methyl-1H-imidazol-5-yl)phenoxy)-4-chlorobenzyl)-13-(4-chlorobenzyl)-3-(cyclopropylmethyl)-10-(hydroxymethyl)-7-methyl-1,6,9,12-tetraazabicyclo[11.3.1]heptadecane-2,5,8,11-tetraone], for which the concentration for half-maximal inhibition (IC50) turned out to be 1090 pM and the Max % inhibition turned out to be 111.9%.
Taken in the same sequence, the figures for `COC[C@@H]1NC(=O)[C@H](C)N(Cc2ccc(Cl)cc2Oc2ccc(-c3cnc(CNC(C)(C)C)n3C)cc2)C(=O)C[C@@H](Cc2ccccc2)C(=O)N2CCC[C@@](Cc3ccc(Cl)cc3)(C2)NC1=O` [Compound 149, (3R, 7S, 10S, 13R)-3-benzyl-6-(2-(4-(2-((tert-butylamino)methyl)-1-methyl-1H-imidazol-5-yl)phenoxy)-4-chlorobenzyl)-13-(4-chlorobenzyl)-10-(methoxymethyl)-7-methyl-1,6,9,12-tetraazabicyclo[11.3.1]heptadecane-2,5,8,11-tetraone] were 750 pM and 111.4%.
Taken in the same sequence, the figures for `CNCc1ncc(-c2ccc(Oc3cc(Cl)ccc3CN3C(=O)C[C@@H](Cc4ccccc4)C(=O)N4CCC[C@@](Cc5ccc(Cl)cc5)(C4)NC(=O)[C@H](CO)NC(=O)[C@@H]3C)cc2)n1C` [Compound 150, (3R, 7S, 10S, 13R)-3-benzyl-6-(4-chloro-2-(4-(1-methyl-2-((methylamino)methyl)-1H-imidazol-5-yl)phenoxy)benzyl)-13-(4-chlorobenzyl)-10-(hydroxymethyl)-7-methyl-1,6,9, 12-tetraazabicyclo[11.3.1]heptadecane-2,5,8,11-tetraone] were 850 pM and 105.4%.

These data come from patent US11813306B2, “Cyclic tetramer compounds as proprotein convertase subtilisin/kexin type 9 (PCSK9) inhibitors for the treatment of metabolic disorders” (NOVARTIS AG, priority 2018, dated 2023).
